Laboratory results published in the NIST ThermoML archive (doi:10.1021/acs.jced.7b00191).
Numbers after ± are expanded uncertainties.

Settings: Liquid; Visual observation in an unstirred cell

Row | Critical temperature [K] | SMILES
1 | 489.4 ± 2.8 | CCC(C)(C)C [2,2-dimethylbutane]
2 | 540.6 ± 2.8 | CCCCCCC [heptane]
3 | 507.4 ± 2.8 | CCCCCC [hexane]
4 | 544 ± 2.8 | CC(C)CC(C)(C)C [2,2,4-trimethylpentane]

The next lines start with the compound.

Row | SMILES | Critical temperature [K]
5 | c1ccccc1 [benzene] | 562.2 ± 2.8
6 | CCCCCCCC [octane] | 568.8 ± 2.8
7 | Fc1ccccc1 [fluorobenzene] | 557.3 ± 2.8
8 | Clc1ccccc1Cl [1,2-dichlorobenzene] | 698.8 ± 2.8
